Laboratory results: ChEMBL document CHEMBL1142248, “Structure-activity relationships and pharmacokinetic parameters of quinoline acylsulfonamides as potent and selective antagonists of the EP(4) receptor” (Bioorg Med Chem Lett, 2008)

Key:
[1] = Volume of distribution at steady state in mouse at 100 mg/kg, po or 10 mg/kg, iv; format: ADME, organism-based; details: in vivo, read-out: Vdss
[2] = Volume of distribution at steady state in dog at 4 mg/kg, po or 5 mg/kg, iv; format: ADME, organism-based, Canis lupus familiaris; details: in vivo, read-out: Vdss
[3] = Metabolic stability in human hepatocytes at 20 uM after 2 hrs; format: ADME, cell-based, Hepatocyte; details: read-out: Stability
[4] = Half life in rat at 10 mg/kg, iv; format: ADME, organism-based; design: dose 10 mg/kg, route intravenous; details: in vivo
[5] = Clearance in mouse at 100 mg/kg, po or 10 mg/kg, iv; format: ADME, organism-based; details: in vivo
[6] = Volume of distribution at steady state in rhesus monkey at 4 mg/kg, po or 2 mg/kg, iv; format: ADME, organism-based, Macaca mulatta; details: in vivo, read-out: Vdss
[7] = Half life in mouse at 10 mg/kg, iv; format: ADME, organism-based; design: dose 10 mg/kg, route intravenous; details: in vivo
[8] = Half life in rhesus monkey at 2 mg/kg, iv; format: ADME, organism-based, Macaca mulatta; design: dose 2 mg/kg, route intravenous; details: in vivo
[9] = Clearance in rat at 20 mg/kg, po or 10 mg/kg, iv; format: ADME, organism-based; details: in vivo
[10] = Metabolic stability in rhesus monkey hepatocytes at 20 uM after 2 hrs; format: ADME, cell-based, Macaca mulatta, Hepatocyte; details: read-out: Stability
[11] = Metabolic stability in rat hepatocytes at 20 uM after 2 hrs; format: ADME, cell-based, Hepatocyte; details: read-out: Stability
[12] = Metabolic stability in dog hepatocytes at 20 uM after 2 hrs; format: ADME, cell-based, Canis lupus familiaris, Hepatocyte; details: read-out: Stability
[13] = Clearance in rhesus monkey at 4 mg/kg, po or 2 mg/kg, iv; format: ADME, organism-based, Macaca mulatta; details: in vivo
[14] = Volume of distribution at steady state in rat at 20 mg/kg, po or 10 mg/kg, iv; format: ADME, organism-based; details: in vivo, read-out: Vdss
[15] = Bioavailability in rat at 20 mg/kg, po or 10 mg/kg, iv; format: ADME, organism-based; details: in vivo
[16] = Half life in dog at 5 mg/kg, iv; format: ADME, organism-based, Canis lupus familiaris; design: dose 5 mg/kg, route intravenous; details: in vivo
[17] = Bioavailability in rhesus monkey at 4 mg/kg, po or 2 mg/kg, iv; format: ADME, organism-based, Macaca mulatta; details: in vivo
[18] = Clearance in dog at 4 mg/kg, po or 5 mg/kg, iv; format: ADME, organism-based, Canis lupus familiaris; details: in vivo
[19] = Bioavailability in dog at 4 mg/kg, po or 5 mg/kg, iv; format: ADME, organism-based, Canis lupus familiaris; details: in vivo
[20] = Bioavailability in mouse at 100 mg/kg, po or 10 mg/kg, iv; format: ADME, organism-based; details: in vivo

Vd [1]: 0.7 L/kg | Vd [2]: 0.2 L/kg | remaining at 2 h, 20 µM [3]: 36% | half-life [4]: 14.8 h | clearance [5]: 2.6 mL/min/kg | Vd [6]: 0.3 L/kg | half-life [7]: 3.5 h | half-life [8]: 3.8 h | clearance [9]: 0.6 mL/min/kg | remaining at 2 h, 20 µM [10]: 39% | remaining at 2 h, 20 µM [11]: 6% | remaining at 2 h, 20 µM [12]: 20% | clearance [13]: 2 mL/min/kg | Vd [14]: 0.7 L/kg | bioavailability [15]: 73% | half-life [16]: 13.2 h | bioavailability [17]: 40% | clearance [18]: 0.2 mL/min/kg | bioavailability [19]: 69% | bioavailability [20]: 44%
Compound: COc1cccc(OC)c1C1(C(=O)[N-]S(=O)(=O)Cc2ccc(N3Cc4c(c(OCC(F)(F)F)c5cccnc5c4OCC(F)(F)F)C3=O)c(C)c2)CC1.[Na+]
